This is an account of results in US10137122B2, “Kinase inhibitors and methods of use thereof” (priority 2012, dated 2018).

The target of series [1] is T1, GSK3α (Homo sapiens (Human), UniProt P49840). As to the kind of experiment: biochemical. The following applies: read-out: % Inhibition at 10 μM, GSK3α.
Method: (§1) Briefly, a selection of compounds was screened against a panel of kinases at a single concentration of 10 μM. […] This was completed utilizing one of two assays depending on the kinase being examined.
(§2) Test compounds were dissolved in and diluted with dimethylsulfoxide (DMSO) to generate a 100× sample solution. These were then diluted to 4× sample solutions in assay buffer to make the final test compound solutions. Reference compounds for assay control were prepared similarly.
(§3) A solution of IMAP binding reagent (IMAP Screening Express kit; Molecular Devices) (60 μL) was added to each well and incubated for 30 minutes.
(§4) A solution of termination buffer (QuickScout Screening assist MSA; Carna Biosciences) (60 μL) was added to each well. The entire reaction mixture was then applied to a LabChip3000 system (Caliper Life Science) and the product and substrate peptide peaks were separated and quantified.
Another series deals with CDK4 (Homo sapiens (Human), UniProt P11802). As to the kind of experiment: Single point inhibition at 10 μM (Carna), CDK4. The series is classed as biochemical.
In series [2] the target is T2, GSK3β (Homo sapiens (Human), UniProt P49841). As to the kind of experiment: biochemical. The following applies: read-out: % Inhibition at 10 μM, GSK3β.
Method: as §1, §2, §3, §4
A further series deals with DYKR1B (Homo sapiens (Human), UniProt Q9Y463). In words: Single point inhibition at 10 μM (Carna), DYKR1B. The series is classed as biochemical.
The next series concerns the target CK1g3 (Homo sapiens (Human), UniProt Q9Y6M4). In words: Single point inhibition at 10 μM (Carna), CK1g3. The series is classed as biochemical.
The target of a further series is BRAF (Homo sapiens (Human), UniProt P15056). As to the kind of experiment: Single point inhibition at 10 μM (Carna), BRAF. Format: biochemical.
The test system of series [3] is TCF/LEF reporter in HEK293-pBARL cells. The note with it: read-out: TCF/LEF EC50.
Method: (§5) HEK293-pBARL cells were derived from HEK293 cells and they stably expressed a firefly-luciferase reporter gene driven by a promoter containing 12 copies of TCF/LEF binding sequences. These cells were maintained in DMEM and supplemented with 10% FBS and 1% penicillin-streptomycin (Invitrogen). Reporter gene assays were conducted in anti-biotic free media. […] These cells also contained a renilla-luciferase reporter gene driven by the ubiquitous EF1α promoter as a control. HEK293-pBarl reporter cell lines were seeded into 384-well culture plates (Corning) at 6000 cells/well. 24 hours after plating, cells were treated overnight with relevant compounds and assayed using DualGlo assay kit (Promega). Luminescent intensities were read by EnVision (PerkinElmer, Waltham, Mass.). Firefly luciferase intensity is normalized by renilla luciferase intensity.
(§6) Cells were cultured in 384 well plates to appropriate density (40 μl total plating volume). 24 hours after plating, cells were treated with 100 nl compounds. 24 hours after incubation with compounds (48 hours after plating), assay reagents were prepared by mixing Luciferase Assay solution with Luciferase substrate and Stop & Glo solution to Stop & Glo substrate (extra reagents can be aliquoted and frozen for future use and are stable for at least one freeze/thaw cycle). […] The plate was spun down and 10 minutes were allowed for signal stabilization. Luciferase signal on the Perkin Elmer EnVision using the following parameters: Distance between plate & detector (mm)=0.2; Measurement time(s)=0.1; Glow (CT2) correction factor=0. Once the initial data is secure, a volume of Stop & Glo was added equal to each well equal to the volume of Luciferase reagent added above (If 10 μl Luciferase Reagent was added, 10 μl Stop & Glo was also added). The plate was spun down and 10 minutes were allowed for signal stabilization. The plate was read on the EnVision using the same parameters detailed above.
A short description of a further series: GSH stability. The series is classed as in vitro ADME. The following applies: glutathione, 48 hours. On the procedure:
Stability was determined in the presence of PBS pH […] and 50 μM glutathione with 0.1% DMSO. Each compound was prepared in duplicate on six separate plates and allowed to equilibrate at room temperature with a 250 rpm orbital shake for 48 hours. One plate was removed at each time point (0, 2, 4, 8, 24, and 48 hours). […] Additionally, to the remaining material at each time point, acetonitrile was added to force dissolution of compound (to test for recovery of compound). An aliquot of this was also analyzed by UPLC-MS.

A further series concerns the target RSK3 (Homo sapiens (Human), UniProt Q15349). As to the kind of experiment: Single point inhibition at 10 μM (Carna), RSK3. The series is classed as biochemical.
For another series, the target named is CDK9 (Homo sapiens (Human), UniProt P50750). In words: Single point inhibition at 10 μM (Carna), CDK9. The series is classed as biochemical.
For another series, the system named is panel of 311 kinases. In words: Single point kinome-wide profile (Carna Biosciences). Format: biochemical.
Another series addresses HIPK4 (Homo sapiens (Human), UniProt Q8NE63). As to the kind of experiment: Single point inhibition at 10 μM (Carna), HIPK4. The series is classed as biochemical.
For another series, the target named is MAP2K6 (Homo sapiens (Human), UniProt P52564). As to the kind of experiment: Single point inhibition at 10 μM (Carna), MAP2K6. The series is classed as biochemical.
Series [4] relates to TCF/LEF reporter in HEK293-pBARL cells. As to the kind of experiment: cells. The note with it: Homo sapiens.
Method: as §5, §6
For the next series, the target named is LIMK1 (Homo sapiens (Human), UniProt P53667). As to the kind of experiment: Single point inhibition at 10 μM (Carna), LIMK1. Format: biochemical.
In series [5] the test system is phospho-Tau (Ser199) in SH-SY5Y cells. As to the kind of experiment: Tau phosphorylation assay (phospho-Tau Ser199 ELISA). The series is classed as cell-based, human. The following applies: Homo sapiens, read-out: p-Tau Inhibition ELISA EC50 SH-SY5Y. On the technique in general: In an ELISA, binding on a coated surface is turned into a signal by an enzyme label.
Method: Tau Phosphorylation and Total Tau Assay
SH-SY5Y cells were maintained in DMEM supplemented with 10% heat-inactivated FBS and 1% penicillin-streptomycin (Invitrogen) unless otherwise stated. ELISA kits for phospho-Tau (Ser199) and total Tau detection were purchased from Invitrogen (KHB0041, and KHB7041 respectively). Briefly, SH-SY5Y cells were seeded at 50,000 cells/200 μL/well in 96 well plates and after overnight incubation, treated with various doses of chemical compounds at 0.2 μL/well. The next day cells were washed with PBS twice before being lysed in 100 μL Lysis buffer/well. 50 μL of cell lysate of each sample was transferred to an ELISA vial coated with the capture antibody, and the mixture was incubated at room temperature for 2 hours, before the supernatant was aspired, and each vial washed four times. 100 μL of detection antibody was then added to each well, incubated for 1 hour, and then washed four times. […] Data were scaled using the positive and neutral controls and fitted for IC50.
A standard protocol using an immunoassay kit to quantify total Tau protein and phospho-Tau (Ser199) protein in SH-SY5Y human neuroblastoma cells was employed. Human Tau (Total) ELISA kit (#KHB0041) and human phosphor-Tau (Ser199) ELISA kit were purchased from Invitrogen (#KHB7041)
50,000 cells were seeded in 200 μl per well in cell culture media (250,000 cells/ml). Cells were incubated overnight @37° C. Cells were induced with appropriate doses of inhibitors and incubated for approximately 24 hrs @37° C. Cell lysates were harvested by washing cells once with cold PBS and adding 100 μl cold lysis buffer and pipette up and down vigorously. Lysate was transferred to 96 well PCR plate and centrifuged at 4,000 rpm for 20 minutes at 4° C.
Well strips were warmed and inserted into the frame. 100μ of standard diluent buffer were loaded into ZERO wells, and 100 ul of each standard concentrations (both total Tau and pTau) were loaded into wells in duplicate. Samples were loaded to each well that would be analyzed for total Tau, 85 μl standard diluent buffer and 15 μl cell lysate were added. To each well that will be analyzed for pTau (Ser199) 50 μl standard diluent buffer+50 μl cell lysate were added. Plates were tapped gently on the side to mix. Certain wells were left empty for chromogen blank. Plates were covered and incubated for 2 hours at room temperature. Wells were aspirated 4 times (400 μl diluted wash buffer, left for 30 seconds, aspirated all wells; alternatively used automated plate washer and programmed in a 30 second hold between each cycle). 100 μl of detection antibody solution were added to each well except chromogen blanks. Anti-total Tau was added to wells being analyzed for total Tau, anti-pTau (Ser199) was added to wells being analyzed for pTau (Ser199), and plates were tapped gently on the side to mix. Plates were covered and incubated for 1 hour at room temperature, then wells were aspirated and washed 4 times as described above. 100 μl of anti-rabbit IgG HRP working solution (prepared ahead) were added to each well except chromogen blanks, and plates were covered and incubated for 30 minutes at room temperature, then wells were aspirated and washed 4 times as described above. 100 μl of stabilized chromogen were added to each well (the liquid turned blue). Plates were incubates for 30 minutes at room temperature in the dark, then 100 μl of stop solution were added to each well, and plates were tapped gently on the side to mix. Absorbance of each well was read at 450 nm (within 2 hours of adding stop solution).
For another series, the target named is MLK3 (Homo sapiens (Human), UniProt Q16584). As to the kind of experiment: Single point inhibition at 10 μM (Carna), MLK3. The series is classed as biochemical.
A further series concerns the target PKR (Homo sapiens (Human), UniProt P19525). As to the kind of experiment: Single point inhibition at 10 μM (Carna), PKR. Format: biochemical.
The target of the next series is MELK (Homo sapiens (Human), UniProt Q14680). In words: Single point inhibition at 10 μM (Carna), MELK. The series is classed as biochemical.
In series [6] the test system is β-catenin nuclear translocation in U2-OS cells. In words: β-Catenin nuclear localization assay. Format: cell-based. The note with it: Homo sapiens, U2OS, read-out: beta-Catenin translocation EC50.
Method: β-Catenin Nuclear Localization Assay
U2-OS cells stably expressing two complimentary β-galactosidase fragments (one part on β-Catenin and the other constitutively expressed in the cell nucleus) were maintained in DMEM F12 supplemented with 10% FBS. When β-catenin translocates to the nucleus, the complimentary fragments form a complete β-galactosidase, the amount of which is then quantified by β-galactosidase activity (DiscoveRx). Cells were seeded in a 384-well CulturPlate (Perkin Elmer, Boston, Mass.) with 10,000 per well in 20 μL DMEM F12 containing 10% FCS, 100 U/ml penicillin and 100 μg/mL streptomycin. After overnight incubation at 37° C., cells were stimulated with 100 nL test compound/well and then returned to the incubator for 6 h. Cells were disrupted using 12 μL substrate-containing lysis buffer from the PathHunter Detection Kit in the formulation specified by the supplier (DiscoveRx). Plates were incubated in the dark for 1 h at room temperature before measurement of β-galactosidase activity (luminescence) on an EnVision plate reader (PerkinElmer, Waltham, Mass.).
A further series is described as follows: PBS stability. The series is classed as physicochemical. The following applies: 48 hours of incubation, acetonitrile recovery.
The target of a further series is CDK5 (Homo sapiens (Human), UniProt Q00535). In words: Single point inhibition at 10 μM (Carna), CDK5. Format: biochemical.
In another series the target is CK1g1 (Homo sapiens (Human), UniProt Q9HCP0). In words: Single point inhibition at 10 μM (Carna), CK1g1. The series is classed as biochemical.
In the next series the target is PLK1 (Homo sapiens (Human), UniProt P53350). In words: Single point inhibition at 10 μM (Carna), PLK1. Format: biochemical.
Another series deals with Erk5 (Homo sapiens (Human), UniProt Q13164). As to the kind of experiment: Single point inhibition at 10 μM (Carna), Erk5. Format: biochemical.
The conditions of series [7]: M (mouse).
For series [8], the target named is T1, GSK3α.
Method: GSK3β Microfluidic Mobility-Shift Assay
(§7) Reactions were terminated by the addition of 10 mM EDTA. Substrate and product were separated electrophoretically and fluorescence intensity of the substrate and product was determined by Labchip EZ Reader II (Caliper Life Sciences, MA). The kinase activity was measured as percent conversion. The reactions were performed in duplicate for each sample. […] The results were analyzed by Genedata Assay Analyzer. The percent inhibition was plotted against the compound concentration and the IC50 value was determined from the logistic dose-response curve fitting.
For series [9], the target named is T2, GSK3β.
Method: GSK3β Microfluidic Mobility-Shift Assay
as §7
Series [10] concerns the target T2, GSK3β. This is another data set of the same source.
Method: Human GSK3β as a GST fusion expressed in baculoviral system was purchased from BPS Bioscience (San Diego, Calif.). […] Reactions were incubated at room temperature for 60 minutes. 2.5 μL/well of ADP-Glo (Promega, V9103) was added with BioRAPTR, and incubated at room temperature for 40 minutes followed by addition of 5 μL/well of ADP-Glo detection reagent (Promega, V9103) with Combi nL (Thermo, Waltham, Mass.) and incubation at room temperature for 30 minutes. The plates were read on a ViewLux (PerkinElmer, Waltham, Mass.) for luminescence. Data were scaled using the positive and neutral controls and fitted for IC50 as described below.
ADP Glo Assay Protocol (10 μM ATP) in 384-Well Format
100 nL/well compounds were pinned. […] Incubated at room temperature for 60 minutes. Added 20 μL/well of ADP-glo (Promega, V9103) with Combi, and incubated at room temperature for 40 minutes. Added 40 μL/well of ADP-glo (Promega, V9103) with Combi, incubated at room temperature for 30 minutes. Read on Envision for luminescence.
The subject of another series is AML cell lines. In words: AML cell morphology, May-Grunwald Giemsa staining. The series is classed as cell-based. The following applies: three days after treatment, vs vehicle. On the procedure:
Compound 70 Induces Morphological Changes in AML Cell Lines Consistent with Myeloid Differentiation
On day three post-chemical treatment, cytospin preparations were performed. Changes in cellular morphology were evaluated by May-Grunwald Giemsa staining (Sigma Aldrich). Images were acquired by light microscopy at 400× magnification.

For a further series, the system named is HL-60 and U937 cells. In words: GE-HTS 32-gene myeloid differentiation signature. Format: cell-based. The following applies: three days treatment. On the procedure:
HL-60 and U937 cells were treated for three days with compound 70 or vehicle. A 32-gene differentiation signature was quantified by the LMA/bead-based approach and a Weighted Summed Score (Differentiation Score) calculated for all genes was determined for each condition. Error bars denote the mean±SD of 8 replicates and statistical significance of the differences between these differentiation scores was derived using a one-way ANOVA with a Bonferroni correction.
Compound 70 Induces a Gene Expression Signature in AML Cell Lines Consistent with Myeloid Differentiation […]

In series [11] the test system is amphetamine-induced hyperactivity. As to the kind of experiment: Amphetamine-induced hyperactivity (AIH) in vivo. The note with it: mice, vs vehicle.
The nature of series [12]: Pharmacokinetics and brain distribution in mice. Format: in vivo. The note with it: single i.p. dose 30 mg/kg, male C57BL/6 mice.
The test system of series [13] is human iPSC-NPCs with TCF/LEF-luciferase reporter. As to the kind of experiment: Neurogenesis assay. The series is classed as cell-based. The following applies: 24-h treatment. The text has this: See, e.g., Zhao et al., J Biomol Screen. 2012 October; 17(9):1252-63.
A further series has as its system GSK3. The note with it: read-out: GSK3 IC50 of lithium; cited from earlier work.

pEC50, pIC50: −log10 of the molar value. Entries after “also recorded” stand apart in the source; their conditions may differ. Read-outs that look alike come from different tables or passages of the source.

T2 sequence (P49841 whole entry): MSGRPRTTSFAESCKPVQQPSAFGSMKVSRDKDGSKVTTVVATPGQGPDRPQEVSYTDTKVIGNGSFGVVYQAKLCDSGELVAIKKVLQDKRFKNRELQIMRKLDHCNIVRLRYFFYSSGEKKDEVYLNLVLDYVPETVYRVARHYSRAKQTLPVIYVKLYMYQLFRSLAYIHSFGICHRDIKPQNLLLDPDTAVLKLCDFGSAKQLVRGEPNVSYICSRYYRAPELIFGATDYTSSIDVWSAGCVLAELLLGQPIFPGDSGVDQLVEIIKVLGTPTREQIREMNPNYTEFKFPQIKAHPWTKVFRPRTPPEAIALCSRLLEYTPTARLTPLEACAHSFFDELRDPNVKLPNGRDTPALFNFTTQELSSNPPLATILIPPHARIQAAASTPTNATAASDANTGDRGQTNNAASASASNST
T1 sequence (P49840 whole entry): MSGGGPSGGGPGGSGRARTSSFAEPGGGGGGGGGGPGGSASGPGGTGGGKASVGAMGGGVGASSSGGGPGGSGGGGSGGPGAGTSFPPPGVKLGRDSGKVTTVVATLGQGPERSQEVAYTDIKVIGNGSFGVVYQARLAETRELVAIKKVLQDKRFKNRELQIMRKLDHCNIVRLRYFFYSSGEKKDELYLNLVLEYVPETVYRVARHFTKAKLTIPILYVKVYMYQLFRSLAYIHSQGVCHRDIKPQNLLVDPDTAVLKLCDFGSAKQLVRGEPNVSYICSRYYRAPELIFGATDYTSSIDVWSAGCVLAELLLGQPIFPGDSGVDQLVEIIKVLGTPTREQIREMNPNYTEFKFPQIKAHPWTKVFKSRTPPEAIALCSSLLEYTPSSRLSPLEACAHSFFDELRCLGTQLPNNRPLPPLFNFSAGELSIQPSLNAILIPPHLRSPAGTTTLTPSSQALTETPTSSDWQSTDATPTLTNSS
Chain of CDK5 (Q00535 whole entry): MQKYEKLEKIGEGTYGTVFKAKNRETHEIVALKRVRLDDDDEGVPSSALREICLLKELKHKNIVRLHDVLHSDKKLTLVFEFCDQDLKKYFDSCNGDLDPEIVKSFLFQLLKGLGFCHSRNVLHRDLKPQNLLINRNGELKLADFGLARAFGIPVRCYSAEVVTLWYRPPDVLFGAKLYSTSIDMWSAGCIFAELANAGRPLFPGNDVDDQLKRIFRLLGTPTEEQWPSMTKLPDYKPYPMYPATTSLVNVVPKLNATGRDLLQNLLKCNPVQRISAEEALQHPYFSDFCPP
Chain of CDK5 (Q15078 99-307 partner): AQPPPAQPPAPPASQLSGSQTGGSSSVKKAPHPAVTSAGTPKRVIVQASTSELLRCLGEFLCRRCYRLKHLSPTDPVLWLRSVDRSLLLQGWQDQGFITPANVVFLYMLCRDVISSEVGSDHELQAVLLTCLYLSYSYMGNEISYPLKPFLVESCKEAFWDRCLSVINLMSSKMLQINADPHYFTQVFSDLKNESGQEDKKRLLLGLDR
Chain of Erk5 (Q13164 whole entry): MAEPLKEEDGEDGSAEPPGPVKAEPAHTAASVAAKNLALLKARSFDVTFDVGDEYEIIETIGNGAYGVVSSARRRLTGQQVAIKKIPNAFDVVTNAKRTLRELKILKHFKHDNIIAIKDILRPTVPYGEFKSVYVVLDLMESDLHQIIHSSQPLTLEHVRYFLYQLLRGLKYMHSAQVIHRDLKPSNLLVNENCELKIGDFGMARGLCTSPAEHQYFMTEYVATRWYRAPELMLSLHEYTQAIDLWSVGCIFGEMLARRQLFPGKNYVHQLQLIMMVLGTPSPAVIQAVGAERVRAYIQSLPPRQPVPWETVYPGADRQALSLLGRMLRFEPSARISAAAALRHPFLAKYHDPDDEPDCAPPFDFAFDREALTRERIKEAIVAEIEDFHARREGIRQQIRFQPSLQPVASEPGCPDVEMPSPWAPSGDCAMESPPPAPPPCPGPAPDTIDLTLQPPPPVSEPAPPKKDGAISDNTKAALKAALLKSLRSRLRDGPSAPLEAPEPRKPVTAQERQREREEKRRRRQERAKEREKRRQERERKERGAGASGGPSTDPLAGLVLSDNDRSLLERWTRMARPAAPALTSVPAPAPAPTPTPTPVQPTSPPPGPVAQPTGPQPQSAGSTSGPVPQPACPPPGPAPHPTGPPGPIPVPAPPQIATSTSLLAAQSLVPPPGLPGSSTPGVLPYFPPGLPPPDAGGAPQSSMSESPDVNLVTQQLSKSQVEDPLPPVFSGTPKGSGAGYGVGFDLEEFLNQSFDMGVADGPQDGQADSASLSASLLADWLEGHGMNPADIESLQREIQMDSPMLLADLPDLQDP
Chain of MAP2K6 (P52564 whole entry): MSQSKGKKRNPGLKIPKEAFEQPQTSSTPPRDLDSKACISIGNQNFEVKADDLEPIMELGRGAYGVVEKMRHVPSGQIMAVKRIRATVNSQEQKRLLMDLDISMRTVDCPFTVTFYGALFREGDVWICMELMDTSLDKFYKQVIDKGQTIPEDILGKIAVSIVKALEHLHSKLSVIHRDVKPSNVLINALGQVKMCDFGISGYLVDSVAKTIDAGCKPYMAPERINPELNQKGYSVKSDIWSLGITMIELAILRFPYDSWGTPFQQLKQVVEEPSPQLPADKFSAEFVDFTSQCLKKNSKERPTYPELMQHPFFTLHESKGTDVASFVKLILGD
Chain of MELK (Q14680 whole entry): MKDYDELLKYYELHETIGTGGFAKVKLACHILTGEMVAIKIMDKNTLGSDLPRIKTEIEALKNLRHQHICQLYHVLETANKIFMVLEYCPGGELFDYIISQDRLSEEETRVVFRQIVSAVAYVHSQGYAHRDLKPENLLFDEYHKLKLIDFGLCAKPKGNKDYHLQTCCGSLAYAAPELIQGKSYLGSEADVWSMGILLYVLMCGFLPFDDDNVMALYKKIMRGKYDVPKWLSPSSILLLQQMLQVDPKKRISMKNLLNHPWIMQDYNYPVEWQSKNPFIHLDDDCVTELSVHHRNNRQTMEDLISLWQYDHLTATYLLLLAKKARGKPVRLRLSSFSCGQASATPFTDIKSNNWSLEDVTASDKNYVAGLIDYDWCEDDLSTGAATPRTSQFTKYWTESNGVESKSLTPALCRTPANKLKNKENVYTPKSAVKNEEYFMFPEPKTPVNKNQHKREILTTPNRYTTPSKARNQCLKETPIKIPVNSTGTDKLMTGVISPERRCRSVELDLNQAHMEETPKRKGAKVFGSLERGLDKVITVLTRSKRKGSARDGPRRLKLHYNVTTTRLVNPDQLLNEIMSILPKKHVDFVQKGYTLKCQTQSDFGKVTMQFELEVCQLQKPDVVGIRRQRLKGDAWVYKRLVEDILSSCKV
Chain of CK1g1 (Q9HCP0 whole entry): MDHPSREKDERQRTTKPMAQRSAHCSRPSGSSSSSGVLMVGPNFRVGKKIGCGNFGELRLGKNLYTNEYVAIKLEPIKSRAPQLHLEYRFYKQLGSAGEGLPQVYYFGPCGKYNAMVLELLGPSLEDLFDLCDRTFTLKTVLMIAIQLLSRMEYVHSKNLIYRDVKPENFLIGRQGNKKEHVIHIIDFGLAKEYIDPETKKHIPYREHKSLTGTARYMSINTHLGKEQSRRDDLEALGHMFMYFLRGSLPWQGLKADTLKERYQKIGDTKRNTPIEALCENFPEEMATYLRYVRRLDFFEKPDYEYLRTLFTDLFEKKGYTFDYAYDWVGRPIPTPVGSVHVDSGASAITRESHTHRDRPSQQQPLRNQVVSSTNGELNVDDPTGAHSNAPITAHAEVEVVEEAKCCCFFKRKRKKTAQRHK
Chain of DYKR1B (Q9Y463 whole entry): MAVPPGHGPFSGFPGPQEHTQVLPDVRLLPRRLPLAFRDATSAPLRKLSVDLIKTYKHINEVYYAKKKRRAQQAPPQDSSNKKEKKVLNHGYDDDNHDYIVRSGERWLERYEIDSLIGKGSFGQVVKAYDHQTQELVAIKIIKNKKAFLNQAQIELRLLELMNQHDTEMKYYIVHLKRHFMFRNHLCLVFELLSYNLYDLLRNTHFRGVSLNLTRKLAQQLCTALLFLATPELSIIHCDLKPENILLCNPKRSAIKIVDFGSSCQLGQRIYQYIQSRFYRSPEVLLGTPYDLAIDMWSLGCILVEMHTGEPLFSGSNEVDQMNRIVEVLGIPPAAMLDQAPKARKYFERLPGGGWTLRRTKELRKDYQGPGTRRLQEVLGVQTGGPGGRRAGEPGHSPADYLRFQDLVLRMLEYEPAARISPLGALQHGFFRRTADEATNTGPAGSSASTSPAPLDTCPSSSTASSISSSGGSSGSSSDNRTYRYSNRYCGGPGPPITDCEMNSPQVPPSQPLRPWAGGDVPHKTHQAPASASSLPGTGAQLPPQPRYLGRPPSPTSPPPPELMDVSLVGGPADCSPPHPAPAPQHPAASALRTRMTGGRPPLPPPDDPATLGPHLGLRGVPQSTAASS
Chain of CK1g3 (Q9Y6M4 whole entry): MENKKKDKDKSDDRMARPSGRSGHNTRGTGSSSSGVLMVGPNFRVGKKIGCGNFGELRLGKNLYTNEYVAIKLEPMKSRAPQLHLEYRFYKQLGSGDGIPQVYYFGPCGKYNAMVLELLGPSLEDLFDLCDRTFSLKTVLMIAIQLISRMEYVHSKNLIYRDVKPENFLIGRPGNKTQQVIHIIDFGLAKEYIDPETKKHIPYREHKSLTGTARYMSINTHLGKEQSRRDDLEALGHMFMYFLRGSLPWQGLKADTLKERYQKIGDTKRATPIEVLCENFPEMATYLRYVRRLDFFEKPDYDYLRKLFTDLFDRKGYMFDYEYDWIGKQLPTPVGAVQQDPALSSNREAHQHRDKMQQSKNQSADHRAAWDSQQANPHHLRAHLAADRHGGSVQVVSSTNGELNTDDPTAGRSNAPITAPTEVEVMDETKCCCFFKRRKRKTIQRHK
Method for BRAF: as §1, §2, §3, §4
Method for CDK4: as §1, §2, §3, §4
Method for CDK5: (§8) Single Point Inhibitory Analysis of Selected Compounds (Carna Biosciences)
as §1, §2, §3, §4
Method for CDK9: as §8, §1, §2, §3, §4
Method for CK1g1: as §1, §2, §3, §4
Method for CK1g3: as §1, §2, §3, §4
Method for DYKR1B: as §1, §2, §3, §4
Method for Erk5: as §8, §1, §2, §3, §4
Method for HIPK4: as §8, §1, §2, §3, §4
Method for LIMK1: as §1, §2, §3, §4
Method for MAP2K6: as §8, §1, §2, §3, §4
Method for MELK: as §8, §1, §2, §3, §4
Method for MLK3: as §8, §1, §2, §3, §4
Method for PBS stability: Stability was determined in the presence of PBS pH 7.4 with 0.1% DMSO. Each compound was prepared in duplicate on six separate plates and allowed to equilibrate at room temperature with a 250 rpm orbital shake for 48 hours. One plate was removed at each time point (0, 2, 4, 8, 24, and 48 hours). […] Additionally, to the remaining material at each time point, acetonitrile was added to force dissolution of compound (to test for recovery of compound). An aliquot of this was also analyzed by UPLC-MS.
Method for PKR: as §8, §1, §2, §3, §4
Method for PLK1: as §8, §1, §2, §3, §4
Method for RSK3: as §8, §1, §2, §3, §4
Method for panel of 311 kinases: as §1, §2, §3, §4

In general, inhibition refers to how much of the control response was suppressed. For `COc1ccccc1[C@@H]1C2=C(CC(C)(C)CC2=O)Nc2n[nH]c(C(F)(F)F)c21` [Compound 54, (R)-4-(2-methoxyphenyl)-7,7-dimethyl-3-(trifluoromethyl)-6,7,8,9-tetrahydro-2H-pyrazolo[3,4-b]quinolin-5(4H)-one], the inhibition at 10 µM was determined as 99.9% on GSK3α [1]; 19% on CDK4; 99.9% on GSK3β [2]; 52.5% against DYKR1B; 3.2% against CK1g3; 10.8% at BRAF. In addition, the inhibition at 10 µM worked out at 0.1% on RSK3; 20.5% against CDK9; 3.2% against HIPK4; 0.1% at MAP2K6; 6.7% at LIMK1; 18.8% against MLK3. The inhibition at 10 µM against PKR worked out at 0.1%; on MELK it was 4.5%; at CDK5, 86.7%; on CK1g1 it was 0.5%; against PLK1 it was 21.3%; against Erk5 it was 0.6%. Moreover, the pEC50 in series [3] is 5.32; in [5], 5.77; in series [6], 5.30. The “GSH stability, % remaining” value in the series “GSH stability” is reported as 99%. For the same compound, the “% of the kinome (311 kinases) inhibited” value with panel of 311 kinases (10 μM, 311 kinases) worked out at 2.6%. Besides, in [4] (HEK293, read-out: TCF/LEF EC50 (μM), HEK293 reporter cells), the EC50 is 5 µM. In “PBS stability”, the “PBS stability, % still present” value is “more than 95%”. Further, the “Microsomal Stability” value in series [7] is listed as “M: 0%”.
For orientation: pIC50 means the IC50 on a negative log10 scale, so that one unit is a factor of ten. Regarding `CC1(C)CC(=O)C2=C(C1)Nc1n[nH]c(C(F)(F)F)c1[C@@H]2c1c(F)cccc1F` [Compound 59], the pIC50 against GSK3α [8] was 6.00 to 7.00; against GSK3β [9], above 7.00; at GSK3β [10] it was above 7.00. Besides, in series [3], the pEC50 is below 4.60.
Turning to `CC1(C)CC(=O)C2=C(C1)Nc1n[nH]c(C(F)(F)F)c1C2(C)c1ccccc1` (single isomer, unassigned) [Compound 70, 4,7,7-trimethyl-4-phenyl-3-(trifluoromethyl)-6,7,8,9-tetrahydro-2H-pyrazolo[3,4-b]quinolin-5(4H)-one], the “morphological evidence of AML differentiation” value in the series on AML cell lines is given as “induces morphological evidence of AML (acute myeloid leukemia) differentiation”; with AML cell lines (listed as compound 70), “demonstrated cellular differentiation”. Further, the “AML differentiation by GE-HTS signature” value in the series with HL-60 and U937 cells is “induced a gene expression signature in AML cell lines consistent with myeloid differentiation; also recorded: induces AML (acute myeloid leukemia) differentiation by GE-HTS signature”. In addition, the EC50 in series [4] (HEK293, read-out: TCF/LEF EC50 (μM)) is 1.86 µM. Further, in series [5] (SH-SY5Y), the pEC50 was 6.09. The “effect on amphetamine-induced hyperactivity, intraperitoneal injection” value in series [11] (systemic i.p.) is listed as “attenuate amphetamine-induced hyperactivity”. The “pharmacokinetic profile (systemic exposure and brain distribution) compared to CHIR99021” value in [12] is on record as “improved pharmacokinetic profile”.
On to `COc1ccccc1[C@@H]1C2=C(CC(C)(C)CC2=O)Nc2n[nH]c(C)c21` [Compound 22, 4-(2-methoxyphenyl)-3,7,7-trimethyl-6,7,8,9-tetrahydro-1H-pyrazolo[3,4-b]quinolin-5(4H)-one], for which the neurogenesis result in [13] was “promoted neurogenesis”. The “number of kinases inhibited greater than 50% at 10 μM” value in the series on panel of 311 kinases (panel of 311 kinases) is recorded as 8 kinases. Besides, in series [11] (intracerebroventricular), the “effect on amphetamine-induced hyperactivity, ICV injection” value is listed as “attenuate amphetamine-induced hyperactivity”.
For `[Li+]` [Li^+], the negative logarithm of the IC50 (pIC50) in the series on GSK3 is 2.70.
